# Laboratory results as given in ChEMBL document CHEMBL1142789, “Carbonic anhydrase inhibitors: design of thioureido sulfonamides with potent isozyme II and XII inhibitory properties and intraocular pressure lowering activity in a rabbit model of glaucoma” (Bioorg Med Chem Lett, 2005).
# Key:
# Format in all cases: functional
# Oryctolagus cuniculus [1] = assay: Tested for the fall of intraocular pressure of glaucomatous rabbits, after treatment with one drop (50 uL) 2% solution at a pH 7.0, directly into the eye after 30 minutes of administration
# Oryctolagus cuniculus [2] = assay: Tested for the fall of intraocular pressure of glaucomatous rabbits, after treatment with one drop (50 uL) 2% solution at a pH 7.0, directly into the eye after 60 minutes of administration
# Oryctolagus cuniculus [3] = assay: Tested for the fall of intraocular pressure of glaucomatous rabbits, after treatment with one drop (50 uL) 2% solution at a pH 7.0, directly into the eye after 90 minutes of administration
# Oryctolagus cuniculus [4] = assay: Tested for the fall of intraocular pressure of glaucomatous rabbits, after treatment with one drop (50 uL) 2% solution at a pH 7.0, directly into the eye after 0 minutes of administration
# Oryctolagus cuniculus [5] = assay: Tested for the fall of intraocular pressure of glaucomatous rabbits, after treatment with one drop (50 uL) 2% solution at a pH 6.5, directly into the eye after 60 minutes of administration
# Oryctolagus cuniculus [6] = assay: Tested for the fall of intraocular pressure of glaucomatous rabbits, after treatment with one drop (50 uL) 2% solution at a pH 6.5, directly into the eye after 30 minutes of administration
# Oryctolagus cuniculus [7] = assay: Tested for the fall of intraocular pressure of glaucomatous rabbits, after treatment with one drop (50 uL) 2% solution at a pH 6.5, directly into the eye after 90 minutes of administration
# Oryctolagus cuniculus [8] = assay: Tested for the fall of intraocular pressure of glaucomatous rabbits, after treatment with one drop (50 uL) 2% solution at a pH 6.5, directly into the eye after 0 minutes of administration
SMILES,Activity (Oryctolagus cuniculus [1]) [mmHg],Activity (Oryctolagus cuniculus [2]) [mmHg],Activity (Oryctolagus cuniculus [3]) [mmHg],Activity (Oryctolagus cuniculus [4]) [mmHg],Activity (Oryctolagus cuniculus [5]) [mmHg],Activity (Oryctolagus cuniculus [6]) [mmHg],Activity (Oryctolagus cuniculus [7]) [mmHg],Activity (Oryctolagus cuniculus [8]) [mmHg]
NC(=O)CC(N)C(=O)NC(=S)NCCc1ccc(S(N)(=O)=O)cc1.[Cl-].[Na+] (stereo unspecified),10,13,15.5,0,,,,
NCC(=O)NC(=S)NCCc1ccc(S(N)(=O)=O)cc1.[Cl-].[Na+],3,5.9,5.5,0,,,,
NC(Cc1ccccc1)C(=O)NC(=S)NCCc1ccc(S(N)(=O)=O)cc1.[Cl-].[Na+] (stereo unspecified),4,6.1,6.4,0,,,,
Cl.NS(=O)(=O)c1ccc(CC/N=C(\S)NNCCN2CCOCC2)cc1,,,,,6.9,6.5,5.9,0
